System: T1, Neutral α-glucosidase (NAG)
T1 construct: gene MGAM; native, unpurified enzyme in human seminal plasma
Experiment: spectrophotometric PNP release at […] nm, Michaelis-Menten
Type: biochemical, Homo sapiens
Conditions: seminal plasma, not purified; average of semen samples (n = 13 in methods); adapted proprietary buffer with SDS, pH 6.8, 37 °C

Km: 4.6 ± 0.63 mM
SMILES: O=[N+]([O-])c1ccc(O[C@H]2O[C@H](CO)[C@@H](O)[C@H](O)[C@H]2O)cc1 [para-nitrophenyl-α-D-glucopyranoside]
